Experimental data taken from patent publication US11401260B2, “Biochemical binding of RET9 and VEGFR2 inhibitors” (Kala Pharmaceuticals, Inc., priority 2017, dated 2022).

Experiments:
[1] = molecular target: vascular endothelial growth receptor 2 (VEGFR2) (Homo sapiens (Human), UniProt P35968); assay: VEGFR2 competition binding assay (DISCOVERX KINOMESCAN); conditions: 11-point dose response, 3-fold serial dilution starting at 1 μM
Protocol: A competition binding assay ([…]) was used to measure the ability of a compound to compete for binding of an immobilized adenosine triphosphate (ATP) site directed ligand using a DNA-tagged vascular endothelial growth receptor 2 (VEGFR2) as the target. The ability of the test compound to compete with the immobilized ligand was measured using quantitative polymerase chain reaction (qPCR) of the DNA tag (Fabian, M. A. et al., 23 Nature Biotechnology 329-336 (2005); Karaman, M. W. et al., 26 Nature Biotechnology 127-132 (2008)). A VEGFR2 tagged T7 phage strain was prepared in an Escherichia coli (E. coli) derived from the BL21 strain. The E. coli were grown to log-phase, infected with VEGFR2 tagged T7 phage and then incubated with shaking at 32° C. until lysis. The lysate containing the kinase was then centrifuged and filtered to remove cell debris. Affinity resin for the VEGFR2 assay was prepared by treating Streptavidin-coated magnetic beads with a biotinylated small molecule ligand for 30 minutes at room temperature. […] The VEGFR2 concentration in the eluate was measured using qPCR. […] Binding constants were calculated with standard dose-response curve using the Hill equation with Hill slope set to -1. […]

RET9 = RET9 (Homo sapiens (Human), UniProt P07949); assay: RET9 competition binding assay (DISCOVERX KINOMESCAN)
Protocol: A competition binding assay ([…]) was used to measure the ability of a compound to compete for binding of an immobilized adenosine triphosphate (ATP) site directed ligand using a DNA-tagged vascular endothelial growth receptor 2 (VEGFR2) as the target. The ability of the test compound to compete with the immobilized ligand was measured using quantitative polymerase chain reaction (qPCR) of the DNA tag (Fabian, M. A. et al., 23 Nature Biotechnology 329-336 (2005); Karaman, M. W. et al., 26 Nature Biotechnology 127-132 (2008)). Similarly, a competition binding assay ([…]) was used to determine the dissociation constant (Kd) of Compound 1 to RET9.

Chain of vascular endothelial growth receptor 2 (VEGFR2) (P35968 20-1356): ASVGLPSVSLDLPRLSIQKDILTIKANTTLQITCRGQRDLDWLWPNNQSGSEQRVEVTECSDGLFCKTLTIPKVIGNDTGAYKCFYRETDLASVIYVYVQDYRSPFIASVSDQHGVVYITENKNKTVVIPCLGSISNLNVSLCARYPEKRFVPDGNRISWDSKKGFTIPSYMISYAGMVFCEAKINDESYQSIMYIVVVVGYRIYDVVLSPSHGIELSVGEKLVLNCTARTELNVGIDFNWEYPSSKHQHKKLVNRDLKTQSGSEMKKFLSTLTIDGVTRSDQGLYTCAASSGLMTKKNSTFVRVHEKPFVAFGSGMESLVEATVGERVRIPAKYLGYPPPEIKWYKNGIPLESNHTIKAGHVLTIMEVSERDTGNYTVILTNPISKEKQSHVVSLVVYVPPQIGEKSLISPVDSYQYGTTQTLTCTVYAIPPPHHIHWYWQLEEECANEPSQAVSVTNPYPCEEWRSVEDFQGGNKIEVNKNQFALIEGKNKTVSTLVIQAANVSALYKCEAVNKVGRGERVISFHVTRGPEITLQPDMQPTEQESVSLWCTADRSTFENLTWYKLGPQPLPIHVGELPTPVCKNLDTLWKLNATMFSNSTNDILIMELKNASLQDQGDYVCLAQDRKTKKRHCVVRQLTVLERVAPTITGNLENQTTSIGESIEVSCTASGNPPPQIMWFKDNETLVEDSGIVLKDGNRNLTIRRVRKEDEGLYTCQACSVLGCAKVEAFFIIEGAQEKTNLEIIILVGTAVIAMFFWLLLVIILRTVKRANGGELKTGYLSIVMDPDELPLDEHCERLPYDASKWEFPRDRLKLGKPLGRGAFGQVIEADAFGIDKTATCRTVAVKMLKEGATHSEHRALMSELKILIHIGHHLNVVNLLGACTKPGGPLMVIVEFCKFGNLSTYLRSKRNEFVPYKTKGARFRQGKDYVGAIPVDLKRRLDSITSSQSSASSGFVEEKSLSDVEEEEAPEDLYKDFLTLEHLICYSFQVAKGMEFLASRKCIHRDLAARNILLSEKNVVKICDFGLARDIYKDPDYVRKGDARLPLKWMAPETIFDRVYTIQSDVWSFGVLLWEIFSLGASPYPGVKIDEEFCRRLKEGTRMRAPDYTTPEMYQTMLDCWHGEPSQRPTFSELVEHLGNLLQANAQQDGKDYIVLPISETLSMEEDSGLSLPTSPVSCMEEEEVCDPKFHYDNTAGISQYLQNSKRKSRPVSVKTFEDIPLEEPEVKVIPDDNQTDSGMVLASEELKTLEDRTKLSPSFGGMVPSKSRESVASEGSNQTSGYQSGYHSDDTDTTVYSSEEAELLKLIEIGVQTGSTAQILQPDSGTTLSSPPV
Chain of RET9 (P07949 other isoform, or with tags, fused parts or gaps): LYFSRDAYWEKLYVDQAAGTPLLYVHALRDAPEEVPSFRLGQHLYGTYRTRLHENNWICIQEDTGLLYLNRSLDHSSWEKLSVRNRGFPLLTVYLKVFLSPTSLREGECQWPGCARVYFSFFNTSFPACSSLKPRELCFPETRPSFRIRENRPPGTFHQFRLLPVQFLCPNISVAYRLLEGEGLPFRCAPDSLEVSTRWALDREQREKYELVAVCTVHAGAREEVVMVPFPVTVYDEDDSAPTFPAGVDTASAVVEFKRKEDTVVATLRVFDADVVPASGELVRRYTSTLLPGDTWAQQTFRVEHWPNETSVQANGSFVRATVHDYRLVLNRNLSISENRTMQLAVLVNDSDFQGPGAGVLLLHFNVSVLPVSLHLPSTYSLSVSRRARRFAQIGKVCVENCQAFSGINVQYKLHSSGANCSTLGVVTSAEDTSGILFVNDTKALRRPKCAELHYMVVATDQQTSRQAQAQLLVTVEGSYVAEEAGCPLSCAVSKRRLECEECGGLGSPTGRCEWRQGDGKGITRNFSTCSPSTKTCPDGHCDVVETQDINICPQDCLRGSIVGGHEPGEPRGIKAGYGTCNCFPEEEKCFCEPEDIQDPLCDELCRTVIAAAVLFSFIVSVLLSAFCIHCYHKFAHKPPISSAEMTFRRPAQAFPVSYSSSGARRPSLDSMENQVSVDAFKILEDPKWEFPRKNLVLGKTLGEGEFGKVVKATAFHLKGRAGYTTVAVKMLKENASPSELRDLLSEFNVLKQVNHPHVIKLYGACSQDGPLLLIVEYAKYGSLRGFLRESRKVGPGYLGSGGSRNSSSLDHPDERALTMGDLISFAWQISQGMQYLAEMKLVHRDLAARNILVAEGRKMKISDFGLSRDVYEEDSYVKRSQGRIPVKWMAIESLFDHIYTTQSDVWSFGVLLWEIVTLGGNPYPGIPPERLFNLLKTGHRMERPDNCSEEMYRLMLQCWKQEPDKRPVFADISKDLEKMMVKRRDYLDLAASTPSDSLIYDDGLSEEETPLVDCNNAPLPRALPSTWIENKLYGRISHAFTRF

## COc1cc2c(Oc3ccc4[nH]c(C)cc4c3F)ncnc2cc1OCCCN1CCC(CO)(CO)CC1 [Compound 1, 7-(3-[4,4-bis(hydroxymethyl)-1-piperidinyl]propoxy)-4-(4-fluoro-2-methyl-1H-indol-5-yloxy)-6-methoxyquinazoline]
[1]
  Kd: 0.38 nM
RET9
  Kd: 3.9 nM
